Data: patent publication US7709488B2, “Imidazopyridine-derivatives as inducible no-synthase inhibitors” (Altana Pharma AG, priority 2003, dated 2010)

Experiments:
[1] = target: human inducible NO-synthase (Homo sapiens, UniProt P35228); test: Measurement of inducible NO-synthase activity ([3H]arginine conversion, crude cytosolic fraction); type: biochemical; settings: 0.1 μM arginine, 45 to 60 min at 37° C., pH 7.2; for IC50: read-out: Inhibition of iNOS activity [measured as −logIC50 (mol/l)] (converted)
Experimental: Measurement of Inducible NO-Synthase Activity
The assay is performed in 96-well microtiter F-plates (Greiner, Frickenhausen, FRG) in a total volume of 100 μl in the presence of 100 nM calmodulin, 226 μM CaCl2, 477 μM MgCl2, 5 μM flavin-adenine-dinucleotide (FAD), 5 μM flavin mononucleotide (FMN), 0.1 mM NADPH, 7 mM glutathione, 10 μM BH4 and 100 mM HEPES pH 7.2. Arginine concentrations are 0.1 μM for enzyme inhibition experiments. 150000 dpm of [^3H]arginine are added to the assay mixture. Enzyme reaction is started by the addition of 4 μg of a crude cytosolic fraction containing human inducible NO-synthase and the reaction mixture is incubated for 45 to 60 min at 37° C. Enzyme reaction is stopped by adding 10 μl of 2M MES-buffer pH 5.0. 50 μl of the incubation mixture are transferred into a MADP N65 filtration microtiter plate (Millipore, Eschbom, FRG) containing already 50 μl of AG-50W-X8 cation exchange resin (Biorad, München, FRG). The resin in the Na loaded form is pre-equilibrated in water and 70 μl (corresponding to 50 μl dry beads) are pipetted under heavy stirring with a 8 channel pipette into the filtration plate. After pipetting 50 μl of the enzyme reaction mixture onto the filtration plates, the plates are placed on a filtration manifold (Porvair, Shepperton, UK) and the flow through is collected in Pico scintillation plates (Packard, Meriden, Conn.). The resin in the filtration plates is washed with 75 μl of water (1×50 μl and 1×25 μl) which is also collected in the same plate as the sample. The total flow through of 125 μl is mixed with 175 μl of Microscint-40 scintillation cocktail (Packard) and the scintillation plate is sealed with TopSeal P-foil (Packard). Scintillation plates are counted in a scintillation counter.
For the measurement of inducible NO-synthase-inhibiting potencies of compounds increasing concentrations of inhibitors were included into the incubation mixture. IC50-values were calculated from the percent inhibition at given concentrations by nonlinear least square fitting.
The inhibitory values determined for the compounds according to the invention follow from the following table A, in which the compound numbers correspond to the example numbers.

| Compound | Inhibition of iNOS activity [measured as −logIC50] [1] | melting point [°C] | IC50 [1] [nM] |
| --- | --- | --- | --- |
| COc1ccnc(CCc2nc3cc(-c4ccc(S(=O)(=O)N(C)C)c(OC(F)(F)F)c4)cnc3[nH]2)c1 [Compound 21, 4-{2-[2-(4-Methoxypyridin-2-yl)ethyl]-3H-imidazo[4,5-b]pyridin-6-yl}-N,N-dimethyl-2-trifluormethoxy-benzenesulfonamide] | 6.95 | – | – |
| COc1ccnc(CCc2nc3cc(-c4ccc(S(=O)(=O)N(C)c5ccc(Cl)cc5)cc4)cnc3[nH]2)c1 [Compound 28, N-(4-Chlorphenyl)-N-methyl-4-{2-[2-(4-methoxypyridin-2-yl)ethyl]-3H-imidazo-[4,5-b]pyridin-6-yl}benzenesulfonamid] | 7.41 | – | – |
| COc1ccnc(CCc2nc3cc(-c4ccc(S(=O)(=O)N5CCC(C)CC5)cc4)cnc3[nH]2)c1 [Compound 12, 2-[2(4-Methoxypyridin-2-yl)ethyl]-6-[4-(4-methyl-piperidin-1-yl-sulfonyl)-phenyl]-3H-imidazo-[4,5-b]pyridine] | – | 186 to 188 | 25.1 |
| COc1ccnc(CCc2nc3cc(-c4ccc(S(=O)(=O)Nc5ccc(C)cc5)cc4)cnc3[nH]2)c1 [Compound 25, 4-{2-[2-(4-Methoxypyridin-2-yl)ethyl]-3H-imidazo[4,5-b]pyridin-6-yl}-N-p-tolyl-benzenesulfonamide] | – | 219 to 220 | 43.7 |
| COc1ccnc(CCc2nc3cc(-c4ccc(S(=O)(=O)N5CCN(Cc6ccccc6)CC5)cc4)cnc3[nH]2)c1 [Compound 2, 2-[2-(4-Methoxypyridin-2-yl)-ethyl]-6-[4-(4-benzylpiperazin-1-yl-sulfonyl)-phenyl]-3H-imidazo-[4,5-b]pyridine] | – | 160 to 162 | 35.5 |
| COc1ccnc(CCc2nc3cc(-c4ccc(S(=O)(=O)Nc5ccccc5OC)cc4)cnc3[nH]2)c1 [Compound 26, 4-{2-[2-(4-Methoxypyridin-2-yl)ethyl]-3H-imidazo[4,5-b]pyridin-6-yl}-N-(2-methoxyphenyl)-benzenesulfonamide] | – | 215 to 216 | 34.7 |
| COc1ccnc(CCc2nc3cc(-c4ccc(S(=O)(=O)N5CCC6(CC5)OCCO6)cc4)cnc3[nH]2)c1 [Compound 14, 6-[4-(1,4-dioxa-8-azaspiro[4.5]decan-8-yl-sulfonyl)-phenyl]-2-[2-(4-methoxy-pyridin-2-yl)ethyl]-3H-imidazo[4,5-b]pyridine] | – | 121 to 122 | 26.3 |
| COc1ccnc(CCc2nc3cc(-c4ccc(S(=O)(=O)N5CCN(c6ccc(C#N)cc6)CC5)cc4)cnc3[nH]2)c1 [Compound 4, 2-[2-(4-Methoxypyridin-2-yl)ethyl]-6-{4-[4-(4-cyanophenyl)-piperazin-1-yl-sulfonyl]-phenyl}-3H-imidazo-[4,5-b]pyridine] | – | 217 to 219 | 30.2 |
| COc1ccnc(CCc2nc3cc(-c4ccc(S(=O)(=O)N(CCO)CCO)cc4)cnc3[nH]2)c1 [Compound 18, N,N-Bis-(2-hydroxyethyl)-4-{2-[2-(4-methoxypyridin-2-yl)ethyl]-3H-imidazo-[4,5-b]pyridin-6-yl}benzenesulfonamid] | – | 127 to 128 | 91.2 |
| COc1ccnc(CCc2nc3cc(-c4ccc(S(=O)(=O)N5CCN(C)CC5)cc4)cnc3[nH]2)c1 [Compound 1] | – | 193 to 195 | 19.5 |
| COc1ccnc(CCc2nc3cc(-c4ccc(S(=O)(=O)N5CCN(c6cc(Cl)cc(Cl)c6)CC5)cc4)cnc3[nH]2)c1 [Compound 7, 6-{4-[4-(3,5-Dichlorphenyl)-piperazin-1-yl-sulfonyl]-phenyl}-2-[2-(4-methoxy-pyridin-2-yl)ethyl]-3H-imidazo[4,5-b]pyridine] | 6.51 | – | – |
| COc1ccnc(CCc2nc3cc(-c4ccc(S(=O)(=O)Nc5ccc(N(C)C)cc5)cc4)cnc3[nH]2)c1 [Compound 27, N-(4-Dimethylamino-phenyl)-4-{2-[2-(4-methoxypyridin-2-yl)ethyl]-3H-imidazo-[4,5-b]pyridin-6-yl}benzenesulfonamid] | – | 221 to 222 | 45.7 |
| COc1ccnc(CCc2nc3cc(-c4ccc(S(=O)(=O)N(C)C)c(C(F)(F)F)c4)cnc3[nH]2)c1 [Compound 22, 4-{2-[2-(4-Methoxypyridin-2-yl)ethyl]-3H-imidazo[4,5-b]pyridin-6-yl}-N,N-dimethyl-2-trifluormethyl-benzenesulfonamide] | 7 | – | – |
| COc1ccnc(CCc2nc3cc(-c4ccc(S(=O)(=O)N5CCNC(=O)CC5)cc4)cnc3[nH]2)c1 [Compound 16, 6-[4-(1,4-Diazepan-5-one-1-yl-sulfonyl)-phenyl]-2-[2-(4-methoxy-pyridin-2-yl)ethyl]-3H-imidazo[4,5-b]pyridine] | – | 230 to 232 | 24 |
| COc1ccnc(CCc2nc3cc(-c4ccc(S(=O)(=O)NC5CCCCC5)cc4)cnc3[nH]2)c1 [Compound 20, N-Cyclohexyl-4-{2-[2-(4-methoxypyridin-2-yl)ethyl]-3H-imidazo-[4,5-b]pyridin-6-yl}benzenesulfonamid] | – | 199 to 200 | 50.1 |
| COc1ccnc(CCc2nc3cc(-c4ccc(S(=O)(=O)N5CCc6cc(OC)c(OC)cc6C5)cc4)cnc3[nH]2)c1 [Compound 15, 6-[4-(6,7-Dimethoxy-1,2,3,4-tetrahydroisoquinolin-2-yl-sulfonyl)-phenyl]-2-[2-(4-methoxy-pyridin-2-yl)ethyl]-3H-imidazo[4,5-b]pyridine] | – | 207 to 208 | 34.7 |
| COc1ccnc(CCc2nc3cc(-c4ccc(S(=O)(=O)N5CCN(c6ccc(C)cc6)CC5)cc4)cnc3[nH]2)c1 [Compound 5, 2-[2-(4-Methoxypyridin-2-yl)ethyl]-6-[4-(4-p-tolyl-piperazin-1-yl-sulfonyl)-phenyl]-3H-imidazo-[4,5-b]pyridine] | – | 150 to 154 | 26.3 |
| COc1ccnc(CCc2nc3cc(-c4ccc(S(=O)(=O)N5CCN(c6ccc(C)cc6C)CC5)cc4)cnc3[nH]2)c1 [Compound 6, 6-{4-[4-(2,4-Dimethylphenyl)-piperazin-1-yl-sulfonyl]-phenyl}-2-[2-(4-methoxy-pyridin-2-yl)ethyl]-3H-imidazo[4,5-b]pyridine] | – | 208 to 209 | 126 |
| COc1ccnc(CCc2nc3cc(-c4ccc(S(=O)(=O)N5CCC(C(=O)c6ccccc6)CC5)cc4)cnc3[nH]2)c1 [Compound 13, 6-[4-(4-Benzoyl-piperidin-1-yl-sulfonyl)-phenyl]-2-[2-(4-methoxy-pyridin-2-yl)ethyl]-3H-imidazo[4,5-b]pyridine] | – | 174 to 175 | 33.1 |
| COc1ccnc(CCc2nc3cc(-c4ccc(S(=O)(=O)N5CCOCC5)cc4)cnc3[nH]2)c1 [Compound 10, 2-[2-(4-Methoxypyridin-2-yl)ethyl]-6-[4-(morpholin-4-yl-sulfonyl)-phenyl]-3H-imidazo-[4,5-b]pyridine] | – | 210 to 212 | 22.9 |
| COc1ccnc(CCc2nc3cc(-c4ccc(S(=O)(=O)N5CCCN(C)CC5)cc4)cnc3[nH]2)c1 [Compound 11, 2-[2-(4-Methoxypyridin-2-yl)ethyl]-6-[4-(4-methyl-[1,4]diazepan-1-yl-sulfonyl)-phenyl]-3H-imidazo-[4,5-b]pyridine] | – | 160 to 162 | 12.9 |
| COc1ccnc(CCc2nc3cc(-c4ccc(S(=O)(=O)N5CCN(c6ccccc6)CC5)cc4)cnc3[nH]2)c1 [Compound 3, 2-[2-(4-Methoxypyridin-2-yl)ethyl]-6-[4-(4-phenylpiperazin-1-yl-sulfonyl)-phenyl]-3H-imidazo-[4,5-b]pyridine] | – | 218 to 220 | 14.5 |
| COc1ccnc(CCc2nc3cc(-c4ccc(S(=O)(=O)NCCO)cc4)cnc3[nH]2)c1 [Compound 17, N-(2-Hydroxyethyl)-4-{2-[2-(4-methoxypyridin-2-yl)ethyl]-3H-imidazo[4,5-b]pyridin-6-yl}benzenesulfonamid] | – | 218 to 220 | 42.7 |
| COc1ccnc(CCc2nc3cc(-c4ccc(S(=O)(=O)NCc5ccccc5)cc4)cnc3[nH]2)c1 [Compound 19, N-Benzyl-4-{2-[2-(4-methoxypyridin-2-yl)ethyl]-3H-imidazo-[4,5-b]pyridin-6-yl}benzenesulfonamid] | – | 211 to 212 | 18.6 |
